Assay results: US7319029B2, “Lipase from Geobacillus sp. strain T1” (Universiti Purta Malaysia, priority 2004, dated 2008)
Where a SMILES comes first, the peptide text is derived from it. [ ]: non-standard residue; d: D form. The star is where a group is joined. Sta = CC(C)C[C@H](N)[C@@H](O)CC(=O)O; Isovaleryl = CC(C)CC(=O)*

What was measured:
T1 mature lipase [1] = test: Effect of metal ions, surfactants and inhibitors on lipase activity; type: biochemical, Geobacillus sp. strain T1; details: for Effect of metal ion on lipase activity: 1 mM, after 30 min of treatment; for Effect of metal ion on lipase activity / Inhibition of lipase activity / Effect of inhibitor on lipase activity: 50° C.; for Inhibition of lipase activity: metal ion 1 mM, after 30 min; for Effect of inhibitor on lipase activity: 5 mM (Pepstatin 1 mM), 30 min; for Effect of surfactant on lipase activity: 0.1%
Protocol: The T1 lipase was tested at temperatures ranging from 40° C. to 80° C. at 5° C. intervals for 30 min for enzyme activity. The thermostability test was conducted at various temperatures for different hours. Recombinant T1 lipase was also kept at a wide range of pH values ranging from pH 4-12 for pH activity and stability determination. The buffer systems used were 50 mM acetate buffer (pH 4-6), potassium phosphate buffer (pH 6-8), Tris-HCl buffer (pH 8-9), glycine-NaOH buffer (pH 9-11), and Na2HPO3/NaOH buffer (pH 11-12). The effect of effectors (metal ions, surfactants) and inhibitors were studied at a concentration of 1 mM and 5 mM, respectively at 50° C. for 30 min with an exceptional for pepstatin (1.0 mM).
The effect of metal ion at final concentration of 1 mM was tested by treatment at 50° C. for 30 min. […] The effect of surfactants on lipase activity on lipase activity was studied at concentration of 0.1% (FIG. 6).
The effect of inhibitors on lipase activity on several metal chelating agent, reducing agents, serine and aspartate inhibitors were used to study the inhibition effect to T1 mature lipase.

T1 mature lipase [2] = test: as above; type: biochemical, Geobacillus sp. strain T1; details: 1 mM, 50° C., after 15 min of treatment
P1 lipase = details: 10 mM of PMSF; cited from earlier work

| Compound | Effect of metal ion on lipase activity (T1 mature lipase [1]) | Effect of inhibitor on lipase activity (T1 mature lipase [1]) | other results |
| --- | --- | --- | --- |
| [Ca+2] [Ca^2+] | stabilizing effect |  |  |
| [Cu+2] [Cu^2+] |  |  | Inhibition of lipase activity (T1 mature lipase [1]): 52% |
| O[C@@H](CS)[C@@H](O)CS [DTT] |  | little inhibition effect |  |
| O=C(O)CN(CCN(CC(=O)O)CC(=O)O)CC(=O)O [EDTA] |  | slightly effect |  |
| [Fe+2] [Fe^2+] |  |  | Inhibition of lipase activity (T1 mature lipase [1]): 60% |
| [K+] [K^+] | stabilizing effect |  | Effect of metal ion on lipase activity (T1 mature lipase [2]): slightly enhanced |
| [Mg+2] [Mg^2+] | stabilizing effect |  |  |
| [Mn+2] [Mn^2+] | stabilizing effect |  | Effect of metal ion on lipase activity (T1 mature lipase [2]): slightly enhanced |
| [Na+] [Na^+] |  |  | Effect of metal ion on lipase activity (T1 mature lipase [2]): slightly enhanced |
| O=S(=O)(F)Cc1ccccc1 [PMSF] |  | strongly inhibited | Inhibition of P1 lipase (P1 lipase): 77% |
| CC(C)CC(=O)N[C@H](C(=O)N[C@H](C(=O)N[C@@H](CC(C)C)[C@@H](O)CC(=O)N[C@@H](C)C(=O)N[C@@H](CC(C)C)[C@@H](O)CC(=O)O)C(C)C)C(C)C [Pepstatin] (Isovaleryl-VV[Sta]A[Sta]-OH) |  | strongly inhibited |  |
| [Zn+2] [Zn^2+] | stabilizing effect |  |  |
| OCCS [β-mercaptoethanol] |  | little inhibition effect |  |
| Tween |  |  | Effect of surfactant on lipase activity (T1 mature lipase [1]): obvious enhancement; Effect of surfactant on lipase activity (T1 mature lipase [1]; listed as Tween 20-80): enhancement effect |
